Test results as given in ChEMBL document CHEMBL1201862, “PubChem BioAssay data set” (2004).
Activity calls are given as the source filed them.

Key:
[1] = target: T1, Ubiquitin-conjugating enzyme E2 N (Homo sapiens, UniProt P61088); format: functional;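 further: Dose-response confirmation in a TR-FRET assay detecting UBC13-driven polyubiquitin chain formation, inhibition measured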
T1 sequence (P61088 whole entry): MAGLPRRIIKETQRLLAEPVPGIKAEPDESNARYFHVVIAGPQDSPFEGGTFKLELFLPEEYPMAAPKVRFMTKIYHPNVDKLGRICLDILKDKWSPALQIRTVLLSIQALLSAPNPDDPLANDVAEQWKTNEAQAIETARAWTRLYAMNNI

[2] = NIH3T3 cell viability loss – ATP luminescence, mouse fibroblasts, counter-screen, dose response (AID 2010); format: functional, cell-based;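 further: cells exposed to compound for about 90 hours before reading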
[3] = Trypanosoma cruzi growth suppression in host cells – NIH3T3 host cells, beta-gal luminescence, confirmation (AID 2044); format: functional, cell-based;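 further: intracellular parasites grown in NIH/3T3 mouse fibroblasts as host cells; luminescent beta-galactosidase reporter signal from transgenic T. cruzi replicating inside host cells; inhibitors lower the luminescence signal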
Vero = assay: cells; format: functional; conditions: Chlorocebus sabaeus
Cytochrome P450 3A4 = Cytochrome P450 3A4 (Homo sapiens, UniProt P08684);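 further: CYP3A4 tested as one member of a cytochrome P450 panel screen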
Sequence of Cytochrome P450 3A4 (P08684 whole entry): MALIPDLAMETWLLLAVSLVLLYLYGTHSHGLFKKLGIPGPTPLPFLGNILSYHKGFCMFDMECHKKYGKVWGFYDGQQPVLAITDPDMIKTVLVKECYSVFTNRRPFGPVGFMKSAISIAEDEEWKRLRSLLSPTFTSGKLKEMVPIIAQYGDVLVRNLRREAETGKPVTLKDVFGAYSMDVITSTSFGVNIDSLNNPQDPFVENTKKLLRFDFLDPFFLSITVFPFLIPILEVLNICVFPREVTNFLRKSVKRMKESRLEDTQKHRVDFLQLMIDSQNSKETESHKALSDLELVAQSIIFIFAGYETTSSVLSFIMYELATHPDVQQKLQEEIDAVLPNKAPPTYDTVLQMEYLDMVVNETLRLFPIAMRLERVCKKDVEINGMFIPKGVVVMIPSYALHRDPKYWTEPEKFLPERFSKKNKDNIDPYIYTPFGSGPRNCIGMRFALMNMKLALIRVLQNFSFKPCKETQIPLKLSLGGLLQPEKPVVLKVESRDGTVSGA

Streptococcus = assay: GAS UMAA2166 growth inhibition – luminescence, BacTiterGlo, counter-screen for streptokinase expression inhibitor project, dose response (AID 1915); format: functional, organism-based;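 further: potency for reduction of bacterial viability or growth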
Cytochrome P450 2C9 = Cytochrome P450 2C9 (Homo sapiens, UniProt P11712)
Sequence of Cytochrome P450 2C9 (P11712 whole entry): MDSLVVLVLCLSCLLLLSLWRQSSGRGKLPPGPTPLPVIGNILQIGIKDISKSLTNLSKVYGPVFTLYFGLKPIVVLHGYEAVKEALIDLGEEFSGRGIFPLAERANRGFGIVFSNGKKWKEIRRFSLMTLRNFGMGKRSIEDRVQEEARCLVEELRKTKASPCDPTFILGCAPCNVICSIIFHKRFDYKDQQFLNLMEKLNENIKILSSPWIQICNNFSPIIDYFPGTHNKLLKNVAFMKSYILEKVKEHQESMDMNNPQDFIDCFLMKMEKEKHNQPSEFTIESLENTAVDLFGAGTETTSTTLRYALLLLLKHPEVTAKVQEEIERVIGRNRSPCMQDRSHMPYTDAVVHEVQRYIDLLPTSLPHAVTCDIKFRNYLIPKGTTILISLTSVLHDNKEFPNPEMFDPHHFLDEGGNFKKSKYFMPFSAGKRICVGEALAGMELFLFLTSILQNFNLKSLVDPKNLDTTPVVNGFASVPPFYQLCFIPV

Protein skinhead-1 = target: T2, Protein skinhead-1 (Caenorhabditis elegans, UniProt P34707); format: functional
T2 sequence (P34707 whole entry): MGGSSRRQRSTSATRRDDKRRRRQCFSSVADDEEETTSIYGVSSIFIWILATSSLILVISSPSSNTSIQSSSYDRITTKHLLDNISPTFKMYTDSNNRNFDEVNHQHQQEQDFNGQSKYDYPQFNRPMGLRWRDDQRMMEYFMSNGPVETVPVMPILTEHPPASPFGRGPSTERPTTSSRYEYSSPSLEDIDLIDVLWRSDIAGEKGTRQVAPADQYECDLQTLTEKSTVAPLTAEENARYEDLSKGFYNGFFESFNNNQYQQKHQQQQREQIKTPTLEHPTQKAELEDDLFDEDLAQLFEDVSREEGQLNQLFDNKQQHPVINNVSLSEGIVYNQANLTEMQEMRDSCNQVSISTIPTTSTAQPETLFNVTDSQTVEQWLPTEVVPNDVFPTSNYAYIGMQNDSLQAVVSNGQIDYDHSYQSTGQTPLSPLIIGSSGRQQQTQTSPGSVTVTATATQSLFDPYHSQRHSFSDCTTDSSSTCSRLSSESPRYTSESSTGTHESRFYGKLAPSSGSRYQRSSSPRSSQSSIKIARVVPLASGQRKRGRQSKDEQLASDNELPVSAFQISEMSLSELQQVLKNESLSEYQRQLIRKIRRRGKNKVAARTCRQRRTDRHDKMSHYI

Streptokinase A = target: T3, Streptokinase A (Streptococcus pyogenes serotype M1, UniProt P10520); assay: viability-normalized secreted streptokinase activity reduction – plasminogen activation absorbance, OD405, dose response (AID 1914); format: functional, Streptococcus pyogenes M1 GAS;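 further: secreted streptokinase activity via plasminogen activation per viability signal from cell pellet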
T3 sequence (P10520 whole entry): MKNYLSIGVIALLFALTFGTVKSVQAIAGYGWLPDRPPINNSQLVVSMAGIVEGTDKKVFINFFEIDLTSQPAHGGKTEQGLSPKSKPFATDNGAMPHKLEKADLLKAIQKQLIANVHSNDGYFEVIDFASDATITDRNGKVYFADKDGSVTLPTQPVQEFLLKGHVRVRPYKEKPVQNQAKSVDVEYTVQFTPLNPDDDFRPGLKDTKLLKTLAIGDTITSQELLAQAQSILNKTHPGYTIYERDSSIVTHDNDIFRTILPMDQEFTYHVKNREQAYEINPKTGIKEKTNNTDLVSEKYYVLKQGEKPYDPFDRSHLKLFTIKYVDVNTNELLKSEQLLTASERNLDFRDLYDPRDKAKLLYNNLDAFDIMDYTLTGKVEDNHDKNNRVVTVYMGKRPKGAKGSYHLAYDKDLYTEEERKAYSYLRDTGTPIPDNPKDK

[4] = reduction of Shn3 3'UTR-driven luciferase in osteoblasts – cell-based, Clone20 osteoblasts, firefly luciferase, cherry-picked, dose response (AID 624132); format: functional;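 further: firefly luciferase luminescence from reporter carrying the Shn3 3'UTR in osteoblasts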
[5] = viability of HCT116 lacking mutant beta-catenin – cell-based, human colon tumor, dose response (AID 1045); format: functional;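 further: HCT116 colon tumor cells with beta catenin knocked out; cells exposed to compound for 60 hours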
[6] = viability of PTEN-deleted HCT116 cells – cell-based, HCT116 PTEN knockout, dose response (AID 1047); format: functional;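 further: HCT116 colon tumor cells with PTEN knocked out; cells exposed to compound for 60 hours before readout; potency for loss of cell viability measured by luminescence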
[7] = target: T4, Replicative DNA helicase DnaB (Mycobacterium tuberculosis, UniProt P9WMR3); assay: DnaB intein splicing inhibitors, dose response, biochemical, cell-free fluorescence (AID 449749); format: functional
T4 sequence (P9WMR3 whole entry): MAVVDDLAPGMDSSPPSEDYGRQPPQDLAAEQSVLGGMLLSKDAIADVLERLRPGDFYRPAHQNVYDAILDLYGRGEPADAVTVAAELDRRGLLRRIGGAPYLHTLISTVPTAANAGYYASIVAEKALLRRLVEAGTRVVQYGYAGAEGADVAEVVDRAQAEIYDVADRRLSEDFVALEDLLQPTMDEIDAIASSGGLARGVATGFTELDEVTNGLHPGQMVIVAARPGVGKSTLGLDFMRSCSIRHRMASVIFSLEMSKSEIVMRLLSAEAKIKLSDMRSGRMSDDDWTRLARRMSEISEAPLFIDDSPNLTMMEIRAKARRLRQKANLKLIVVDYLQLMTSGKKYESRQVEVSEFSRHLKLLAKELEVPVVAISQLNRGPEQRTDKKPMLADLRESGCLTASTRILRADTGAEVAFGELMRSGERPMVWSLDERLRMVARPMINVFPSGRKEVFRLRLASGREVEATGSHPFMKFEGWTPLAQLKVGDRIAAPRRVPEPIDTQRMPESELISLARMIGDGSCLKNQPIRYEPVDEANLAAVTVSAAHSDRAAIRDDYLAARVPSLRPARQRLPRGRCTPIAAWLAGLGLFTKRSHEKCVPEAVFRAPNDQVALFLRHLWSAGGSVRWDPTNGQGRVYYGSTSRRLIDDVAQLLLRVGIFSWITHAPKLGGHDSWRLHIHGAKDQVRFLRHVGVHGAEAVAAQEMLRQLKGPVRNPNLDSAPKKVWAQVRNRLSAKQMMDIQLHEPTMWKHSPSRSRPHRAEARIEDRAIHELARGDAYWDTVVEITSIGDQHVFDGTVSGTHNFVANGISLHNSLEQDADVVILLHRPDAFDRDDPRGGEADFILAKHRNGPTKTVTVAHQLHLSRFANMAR

Protein RecA = target: T5, Protein RecA (Mycobacterium tuberculosis, UniProt P9WHJ3); assay: Fluorescence Cell-Free Homogeneous Dose Retest to Identify Inhibitors of RecA-Intein Splicing Activity. [Related pubchem assays (depositor defined):AID2097, AID2223, AID489010, AID492950]; format: functional
T5 sequence (P9WHJ3 whole entry): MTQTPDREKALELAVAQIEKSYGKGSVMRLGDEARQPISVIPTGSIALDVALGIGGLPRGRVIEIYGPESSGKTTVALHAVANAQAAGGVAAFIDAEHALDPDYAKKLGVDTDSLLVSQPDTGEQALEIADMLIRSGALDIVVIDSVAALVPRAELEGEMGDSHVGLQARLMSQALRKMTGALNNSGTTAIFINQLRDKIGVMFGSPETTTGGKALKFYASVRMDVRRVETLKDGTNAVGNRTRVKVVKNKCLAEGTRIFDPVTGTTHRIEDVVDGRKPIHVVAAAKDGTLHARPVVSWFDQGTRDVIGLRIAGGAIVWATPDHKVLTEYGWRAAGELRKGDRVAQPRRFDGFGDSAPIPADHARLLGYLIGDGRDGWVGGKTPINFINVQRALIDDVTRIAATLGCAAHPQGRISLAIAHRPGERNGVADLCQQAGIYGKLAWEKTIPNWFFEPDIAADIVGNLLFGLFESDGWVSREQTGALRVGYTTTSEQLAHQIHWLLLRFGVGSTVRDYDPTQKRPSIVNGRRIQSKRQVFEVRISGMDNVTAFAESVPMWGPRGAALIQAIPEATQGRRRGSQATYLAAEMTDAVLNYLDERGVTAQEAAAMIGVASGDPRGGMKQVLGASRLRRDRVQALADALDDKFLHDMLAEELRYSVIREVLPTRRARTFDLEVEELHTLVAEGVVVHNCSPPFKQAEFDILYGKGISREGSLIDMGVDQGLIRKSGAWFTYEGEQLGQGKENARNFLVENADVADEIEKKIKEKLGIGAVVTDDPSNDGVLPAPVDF

[8] = non-specific 3'UTR reporter inhibition in Clone20-Shn3RL – cell-based, Renilla luciferase, cherry-picked, counter-screen for Shn3 inhibitor project, dose response (AID 624133); format: functional
[9] = loss of viability in HepG2 cells – cell-based, CellTiter-Glo, cherry-picked, cytotoxicity control for Shn3 inhibitor project, dose response (AID 624134); format: functional
INS1 = assay: INS-1E survival protection against cytokine death – cell-based, luminescence, retest, dose response (AID 449756); format: functional; conditions: Rattus norvegicus;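 further: cell death triggered by IL-1 beta plus TNF-alpha plus IFN-gamma mixture; protective hits raise ATP signal compared with cytokine alone wells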
[10] = Luminescence Cell-Based Dose Response HTS to Identify Inhibitors of 5'UTR Stem-Loop Driven Prion Protein mRNA Translation in H4 Neuroglioblastoma Cells. [Related pubchem assays: 1827 (Project Summary), 1813 (Primary HTS)]; format: functional
[11] = alpha-synuclein stem-loop luciferase translation blockers – H4 neuroglioma cells, luminescence, confirmation (AID 1988); format: functional, cell-based
[12] = luciferase reporter signal suppression in cells – H4 neuroglioma cells, luminescence, dose response (AID 1990); format: functional, cell-based
[13] = blockers of bursicon-stimulated LGR2 cAMP reporter – cell-based, HEK293, CRE-luciferase reporter, cherry pick, set 2, dose response (AID 743343); format: functional;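 further: transfected cells were stimulated with diluted bursicon conditioned medium after compound addition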
[14] = blockade of melanocortin 4 receptor signaling – cell-based, plate reader, cherry pick, counter-screen for LGR2 antagonist project, dose response (AID 743444); format: functional;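 further: transfected HEK 293 cells stimulated with alpha-MSH peptide; potency of inhibitors of the alpha-MSH evoked signal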
[15] = fluconazole-exposed Candida albicans growth modulators – fluorescence, retest, confirmation (AID 2467); format: functional, cell-based
[16] = NIH-3T3 fibroblast cytotoxicity, dose response, cytotoxicity control, cell-based, fluorescence, Alamar Blue, secondary assay (AID 2327); format: functional;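 further: NIH-3T3 mouse fibroblasts cultured with fluconazole at 8 µg/mL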

Compound: CC1CCN(c2c(NCc3ccc(C(=O)N4CCN(C5CCCCC5)CC4)cc3)c(=O)c2=O)CC1
- IC50 [1]: > 20 µM (inactive)

Compound: Cc1sc(NC(=O)c2ccco2)c(C(c2ccccc2)N2CCC(C)CC2)c1C (stereo not given)
- EC50 [2]: > 60 µM (not active)
- EC50 [3]: 1.09 µM (active)
- CC50 (Vero): 14.1 µM (active)

Compound: CCc1sc(N(C(=O)Cc2ccccc2)c2cccc(F)c2)nc1-c1ccc(C)cc1
- AC50 (Cytochrome P450 3A4): 17.8 µM (inconclusive)
- EC50 (Streptococcus): > 150 µM (not active)
- AC50 (Cytochrome P450 2C9): 6.31 µM (inconclusive)
- IC50 (Protein skinhead-1): > 100 µM (inactive)
- EC50 (Streptokinase A): 32.6 µM (active)

Compound: COc1ccccc1/C=C1\CCCC2=C1Nc1nnnn1C2c1ccccc1OC (stereo not given)
- AC50 [4]: 36 µM (active)
- EC50 [5]: 6.96 µM (active)
- EC50 [6]: 8.85 µM (active)

Compound: CCOC(=O)c1nnc(-c2ccccc2)nc1Sc1c(Cl)cccc1Cl
- AC50 [7]: 2.22 µM (active)
- EC50 (Protein RecA): > 380 µM (inconclusive)
- EC50 [5]: 27.7 µM (active)
- EC50 [6]: 26.9 µM (active)

Compound: O=C(/C=C/c1ccc(OCc2ccccc2)c(OCc2ccccc2)c1)c1cccnc1
- AC50 [4]: 5.19 µM (active)
- EC50 [5]: 6.92 µM (active)
- EC50 [6]: 8.72 µM (active)
- AC50 [8]: 19.3 µM (active)
- AC50 [9]: 40.5 µM (active)

Compound: O=C(/C=C/c1ccncc1)c1ccc2c(c1)OCCO2
- CC50 (Vero): > 25 µM (active)

Compound: Cc1ccc(-c2noc(CCC(=O)NCC3CCN(Cc4cccc(C)c4)CC3)n2)cc1
- IC50 [1]: > 20 µM (inactive)

Compound: C(=C1/CCCC2=C1Nc1ncnn1C2c1ccccc1)/c1ccccc1 (stereo not given)
- EC50 [2]: 6.87 µM (active)
- AC50 (Cytochrome P450 2C9): 7.94 µM (inconclusive)
- EC50 [3]: 3.45 µM (active)
- EC50 [5]: 2.58 µM (active)
- EC50 [6]: 3.45 µM (active)

Compound: O=C(NN=C(c1ccccc1)c1ccccn1)c1ccccc1
- AC50 (INS1): 0.736 µM (active)
- CC50 (Vero): 3.11 µM (active)

Compound: O=C(CCN1C(=O)/C(=C\c2ccccc2)SC1=S)N1CCOCC1
- CC50 (Vero): 24.5 µM (active)

Compound: CCOC(=O)Cc1csc(N/C=C2/C(=O)N(c3ccc(C)c(C)c3)C(=O)c3ccccc32)n1
- EC50 [5]: 10 µM (active)
- EC50 [10]: 10.1 µM (active)
- EC50 [11]: > 120 µM (not active)
- EC50 [12]: > 120 µM (not active)
- EC50 [6]: 15.1 µM (active)

Compound: Cc1ccccc1Nc1nnc(SCC(=O)NC(=O)Nc2ccc3c(c2)OCCO3)s1
- EC50 [5]: 14.5 µM (active)
- EC50 [6]: 14.6 µM (active)

Compound: CC1CCN(S(=O)(=O)c2ccc3c(c2)oc(=O)n3CC(=O)N2c3ccccc3CC2C)CC1 (stereo not given)
- EC50 [5]: 30.9 µM (active)
- EC50 [6]: 39.5 µM (active)

Compound: C=CCNC(=O)c1c(Cl)nc(C)c([N+](=O)[O-])c1C
- AC50 [13]: 42.7 µM (active)
- AC50 [14]: 55.3 µM (active)

Compound: COc1ccc(C=NN=C2c3ccccc3-c3ccccc32)cc1O
- CC50 (Vero): > 25 µM (active)

Compound: Cc1nc(N)c2c(Cc3cccc4ccccc34)nn(C(C)(C)C)c2n1
- IC50 [1]: > 20 µM (inactive)

Compound: C[C@H]1CN([C@@H](C)CO)S(=O)(=O)c2ccc(Br)cc2O[C@@H]1CN(C)Cc1cccc(F)c1
- CC50 (Vero): > 25 µM (active)

Compound: C/C(=N\OCc1ccc(C#N)cc1)c1cc2ccccc2o1
- EC50 [15]: > 38 µM (not active)
- EC50 [16]: > 160 µM (inconclusive)
- IC50 (Protein skinhead-1): 64 µM (inactive)

Compound: Cc1ccccc1OCc1nc2ccccc2c(=O)n1/N=C/c1c[nH]nc1-c1ccc(Br)cc1
- EC50 [5]: 7.51 µM (active)
- EC50 [6]: 7.05 µM (active)
